In paper PMC9856672, “SGC-CAMKK2-1: A Chemical Probe for CAMKK2” (Cells, 2023) one finds remaining binding data, which are given here for two compounds.

Assay [1] deals with T1, LKB1 (Homo sapiens, UniProt Q15831).
T1 construct: purchased Eurofins DiscoverX KINOMEscan
Description: KINOMEscan 1 μM, LKB1. In kind it is binding. The settings on record: 1000 nM; Entrez STK11; read-out: Percent Control. The text has this:
(§1) Supplement cells-12-00287-s001.zip/File S2. KinomeScan data for the CAMKK2 probe and negative control.xlsx, sheet "SGC-CAMKK2-1" | column: Percent Control

The target in assay [2] is T2, SRPK1 (Homo sapiens, UniProt Q96SB4).
T2 construct: purchased Eurofins DiscoverX KINOMEscan
Description: KINOMEscan 1 μM, SRPK1. In kind it is binding. The settings on record: 1000 nM; Entrez SRPK1; read-out: Percent Control.
Description: as §1

In assay [3] the target is T3, AMPK-alpha2 (Homo sapiens, UniProt P54646).
T3 construct: purchased Eurofins DiscoverX KINOMEscan
Description: KINOMEscan 1 μM, AMPK-alpha2. In kind it is binding. Particulars: 1000 nM; Entrez PRKAA2; read-out: Percent Control.
Description: as §1

The target in assay [4] is T4, HIPK3 (Homo sapiens, UniProt Q9H422).
T4 construct: purchased Eurofins DiscoverX KINOMEscan
Description: KINOMEscan 1 μM, HIPK3. In kind it is binding. Particulars: 1000 nM; Entrez HIPK3; read-out: Percent Control.
Description: as §1

For assay [5], the target named is T5, LTK (Homo sapiens, UniProt P29376).
T5 construct: purchased Eurofins DiscoverX KINOMEscan
Description: KINOMEscan 1 μM, LTK. In kind it is binding. Particulars: 1000 nM; Entrez LTK; read-out: Percent Control.
Description: as §1

Assay [6] deals with T6, TIE2 (Homo sapiens, UniProt Q02763).
T6 construct: purchased Eurofins DiscoverX KINOMEscan
Kind of assay: KINOMEscan 1 μM, TIE2. In kind it is binding. The settings on record: 1000 nM; Entrez TEK; read-out: Percent Control.
Description: as §1

Assay [7] addresses T7, ERK5 (Homo sapiens, UniProt Q13164).
T7 construct: purchased Eurofins DiscoverX KINOMEscan
Kind of assay: KINOMEscan 1 μM, ERK5. In kind it is binding. The settings on record: 1000 nM; Entrez MAPK7; read-out: Percent Control.
Description: as §1

Assay [8] concerns the target T8, PFCDPK1(P.falciparum) (Plasmodium falciparum, UniProt P62344).
T8 construct: purchased Eurofins DiscoverX KINOMEscan
Kind of assay: DiscoverX KINOMEscan binding assay at 1 μM, PFCDPK1(P.falciparum). Particulars: PFCDPK1(P.falciparum) (CDPK1); Compound Concentration 1000 nM; read-out: Percent Control.
Description: as §1

Assay [9] addresses T9, MAP3K3 (Homo sapiens, UniProt Q99759).
T9 construct: purchased Eurofins DiscoverX KINOMEscan
Description: KINOMEscan 1 μM, MAP3K3. In kind it is binding. Particulars: 1000 nM; Entrez MAP3K3; read-out: Percent Control.
Description: as §1

Assay [10] concerns the target T10, FGFR4 (Homo sapiens, UniProt P22455).
T10 construct: purchased Eurofins DiscoverX KINOMEscan
Description: KINOMEscan 1 μM, FGFR4. In kind it is binding. The settings on record: 1000 nM; Entrez FGFR4; read-out: Percent Control.
Description: as §1

Assay [11] has as its target T11, SGK3 (Homo sapiens, UniProt Q96BR1).
T11 construct: purchased Eurofins DiscoverX KINOMEscan
Kind of assay: DiscoverX KINOMEscan binding assay at 1 μM, SGK3. The settings on record: Compound Concentration 1000 nM, read-out: Percent Control.
Description: as §1

Assay [12] deals with T12, RPS6KA4(Kin.Dom.1-N-terminal) (Homo sapiens, UniProt O75676).
T12 construct: RPS6KA4(Kin.Dom.1-N-terminal); purchased Eurofins DiscoverX KINOMEscan
Kind of assay: DiscoverX KINOMEscan binding assay at 1 μM, RPS6KA4(Kin.Dom.1-N-terminal). Particulars: Compound Concentration 1000 nM, read-out: Percent Control.
Description: as §1

Assay [13] concerns the target T13, CLK1 (Homo sapiens, UniProt P49759).
T13 construct: purchased Eurofins DiscoverX KINOMEscan
Kind of assay: KINOMEscan 1 μM, CLK1. In kind it is binding. The settings on record: 1000 nM; Entrez CLK1; read-out: Percent Control.
Description: as §1

The target of assay [14] is T14, DDR2 (Homo sapiens, UniProt Q16832).
T14 construct: purchased Eurofins DiscoverX KINOMEscan
Kind of assay: KINOMEscan 1 μM, DDR2. In kind it is binding. The settings on record: 1000 nM; Entrez DDR2; read-out: Percent Control.
Description: as §1

Assay [15] addresses T15, ADCK3 (Homo sapiens, UniProt Q8NI60).
T15 construct: purchased Eurofins DiscoverX KINOMEscan
Description: KINOMEscan 1 μM, ADCK3. In kind it is binding. Particulars: 1000 nM; Entrez CABC1; read-out: Percent Control.
Description: as §1

Assay [16] has as its target T16, ITK (Homo sapiens, UniProt Q08881).
T16 construct: purchased Eurofins DiscoverX KINOMEscan
Description: KINOMEscan 1 μM, ITK. In kind it is binding. Particulars: 1000 nM; Entrez ITK; read-out: Percent Control.
Description: as §1

The target of assay [17] is T17, CSK (Homo sapiens, UniProt P41240).
T17 construct: purchased Eurofins DiscoverX KINOMEscan
Kind of assay: KINOMEscan at 1 μM, CSK. In kind it is binding. The settings on record: 1000 nM, read-out: Percent Control. The source says:
(§2) Supplement cells-12-00287-s001.zip/File S2. KinomeScan data for the CAMKK2 probe and negative control.xlsx, sheet "SGC-CAMKK2-1N" | column: Percent Control

The target of assay [18] is T18, TYRO3 (Homo sapiens, UniProt Q06418).
T18 construct: purchased Eurofins DiscoverX KINOMEscan
Kind of assay: KINOMEscan binding assay at 1 μM, TYRO3. Particulars: Compound Concentration 1000 nM; read-out: Percent Control.
Description: as §2

Assay [19] addresses T19, TLK1 (Homo sapiens, UniProt Q9UKI8).
T19 construct: purchased Eurofins DiscoverX KINOMEscan
Kind of assay: KINOMEscan at 1 μM, TLK1. In kind it is binding. The settings on record: 1000 nM, read-out: Percent Control.
Description: as §2

For assay [20], the target named is T20, ERK2 (Homo sapiens, UniProt P28482).
T20 construct: purchased Eurofins DiscoverX KINOMEscan
Kind of assay: KINOMEscan binding assay at 1 μM, ERK2. The settings on record: Compound Concentration 1000 nM; read-out: Percent Control.
Description: as §2

Assay [21] addresses T21, NEK2 (Homo sapiens, UniProt P51955).
T21 construct: purchased Eurofins DiscoverX KINOMEscan
Description: KINOMEscan at 1 μM, NEK2. In kind it is binding. The settings on record: 1000 nM, read-out: Percent Control.
Description: as §2

The target of assay [22] is T22, EGFR(L858R,T790M) (Homo sapiens, UniProt P00533, L858R/T790M).
T22 construct: purchased Eurofins DiscoverX KINOMEscan
Description: KINOMEscan at 1 μM, EGFR(L858R,T790M). In kind it is binding. The settings on record: 1000 nM, read-out: Percent Control.
Description: as §2

In assay [23] the target is T23, MST4 (Homo sapiens, UniProt Q9P289).
T23 construct: purchased Eurofins DiscoverX KINOMEscan
Kind of assay: KINOMEscan at 1 μM, MST4. Particulars: 1000 nM, read-out: Percent Control. In kind it is binding.
Description: as §2

For assay [24], the target named is T4, HIPK3. Kind of assay: KINOMEscan at 1 μM, HIPK3. In kind it is binding. The settings on record: 1000 nM, read-out: Percent Control.
Description: as §2

In assay [25] the target is T24, RSK3(Kin.Dom.1-N-terminal) (Homo sapiens, UniProt Q15349).
T24 construct: RSK3(Kin.Dom.1-N-terminal); purchased Eurofins DiscoverX KINOMEscan
Description: KINOMEscan binding assay at 1 μM, RSK3(Kin.Dom.1-N-terminal). The settings on record: Compound Concentration 1000 nM; read-out: Percent Control.
Description: as §2

Assay [26] has as its target T25, FLT3(R834Q) (Homo sapiens, UniProt P36888, R834Q).
T25 construct: purchased Eurofins DiscoverX KINOMEscan
Kind of assay: KINOMEscan at 1 μM, FLT3(R834Q). In kind it is binding. Particulars: 1000 nM, read-out: Percent Control.
Description: as §2

The target in assay [27] is T26, NEK6 (Homo sapiens, UniProt Q9HC98).
T26 construct: purchased Eurofins DiscoverX KINOMEscan
Kind of assay: KINOMEscan binding assay at 1 μM, NEK6. Particulars: Compound Concentration 1000 nM; read-out: Percent Control.
Description: as §2

The target in assay [28] is T27, CLK2 (Homo sapiens, UniProt P49760).
T27 construct: purchased Eurofins DiscoverX KINOMEscan
Description: KINOMEscan at 1 μM, CLK2. In kind it is binding. Particulars: 1000 nM, read-out: Percent Control.
Description: as §2

The target of assay [29] is T28, MEK6 (Homo sapiens, UniProt P52564).
T28 construct: purchased Eurofins DiscoverX KINOMEscan
Kind of assay: KINOMEscan at 1 μM, MEK6. In kind it is binding. The settings on record: 1000 nM, read-out: Percent Control.
Description: as §2

In assay [30] the target is T29, PIP5K2B (Homo sapiens, UniProt P78356).
T29 construct: purchased Eurofins DiscoverX KINOMEscan
Description: KINOMEscan at 1 μM, PIP5K2B. In kind it is binding. Particulars: 1000 nM, read-out: Percent Control.
Description: as §2

For assay [31], the target named is T30, TGFBR1 (Homo sapiens, UniProt P36897).
T30 construct: purchased Eurofins DiscoverX KINOMEscan
Description: KINOMEscan at 1 μM, TGFBR1. In kind it is binding. Particulars: 1000 nM, read-out: Percent Control.
Description: as §2

Assay [32] addresses T31, LOK (Homo sapiens, UniProt O94804).
T31 construct: purchased Eurofins DiscoverX KINOMEscan
Kind of assay: KINOMEscan binding assay at 1 μM, LOK. The settings on record: Compound Concentration 1000 nM; read-out: Percent Control.
Description: as §2

For assay [33], the target named is T32, ALK (Homo sapiens, UniProt Q9UM73).
T32 construct: purchased Eurofins DiscoverX KINOMEscan
Description: KINOMEscan at 1 μM, ALK. The settings on record: 1000 nM, read-out: Percent Control. In kind it is binding.
Description: as §2

T4 sequence (Q9H422 whole entry): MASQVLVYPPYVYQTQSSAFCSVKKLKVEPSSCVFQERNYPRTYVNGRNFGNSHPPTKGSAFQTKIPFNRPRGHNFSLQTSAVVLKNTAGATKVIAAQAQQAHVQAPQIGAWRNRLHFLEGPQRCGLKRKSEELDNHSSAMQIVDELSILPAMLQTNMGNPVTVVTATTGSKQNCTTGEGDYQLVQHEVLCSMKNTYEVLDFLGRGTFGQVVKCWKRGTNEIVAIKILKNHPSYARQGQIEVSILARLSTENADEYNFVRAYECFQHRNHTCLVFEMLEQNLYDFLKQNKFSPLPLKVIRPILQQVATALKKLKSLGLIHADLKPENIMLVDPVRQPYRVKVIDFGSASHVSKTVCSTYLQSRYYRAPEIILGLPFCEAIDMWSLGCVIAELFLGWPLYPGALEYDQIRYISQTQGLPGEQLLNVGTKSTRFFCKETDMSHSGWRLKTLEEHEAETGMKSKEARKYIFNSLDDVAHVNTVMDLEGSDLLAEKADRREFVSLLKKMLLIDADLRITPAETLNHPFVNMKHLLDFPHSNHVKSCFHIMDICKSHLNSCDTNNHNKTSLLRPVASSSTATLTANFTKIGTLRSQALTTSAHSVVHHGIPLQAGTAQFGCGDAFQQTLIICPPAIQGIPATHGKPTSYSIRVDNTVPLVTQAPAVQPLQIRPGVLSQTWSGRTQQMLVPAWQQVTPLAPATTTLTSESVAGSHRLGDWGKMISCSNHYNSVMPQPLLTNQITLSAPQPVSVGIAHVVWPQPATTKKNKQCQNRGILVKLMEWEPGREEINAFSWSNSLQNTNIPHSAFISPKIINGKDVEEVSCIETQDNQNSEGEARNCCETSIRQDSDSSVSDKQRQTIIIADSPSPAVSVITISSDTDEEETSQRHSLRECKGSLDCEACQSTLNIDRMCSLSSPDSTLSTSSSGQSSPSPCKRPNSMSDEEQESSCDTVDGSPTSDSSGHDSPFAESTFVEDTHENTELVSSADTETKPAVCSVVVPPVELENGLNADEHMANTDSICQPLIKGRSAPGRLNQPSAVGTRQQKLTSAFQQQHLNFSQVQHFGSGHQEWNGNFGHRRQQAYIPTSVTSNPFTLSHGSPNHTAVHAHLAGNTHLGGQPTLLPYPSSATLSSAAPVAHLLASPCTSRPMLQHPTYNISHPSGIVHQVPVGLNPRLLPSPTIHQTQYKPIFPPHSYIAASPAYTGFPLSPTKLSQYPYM
T11 sequence (Q96BR1 whole entry): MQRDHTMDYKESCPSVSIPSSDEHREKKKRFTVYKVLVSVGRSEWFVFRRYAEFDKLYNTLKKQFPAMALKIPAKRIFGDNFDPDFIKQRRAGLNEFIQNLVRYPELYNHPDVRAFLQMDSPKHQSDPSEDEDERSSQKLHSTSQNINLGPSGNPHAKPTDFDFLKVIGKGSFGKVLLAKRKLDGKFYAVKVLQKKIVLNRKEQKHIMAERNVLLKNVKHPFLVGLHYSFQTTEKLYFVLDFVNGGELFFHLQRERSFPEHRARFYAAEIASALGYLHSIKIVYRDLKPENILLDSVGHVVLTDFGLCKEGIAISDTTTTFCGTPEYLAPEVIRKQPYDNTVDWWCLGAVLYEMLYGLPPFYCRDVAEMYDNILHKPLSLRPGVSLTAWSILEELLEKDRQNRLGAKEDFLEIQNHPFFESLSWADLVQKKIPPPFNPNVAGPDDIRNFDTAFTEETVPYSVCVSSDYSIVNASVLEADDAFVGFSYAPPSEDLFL
T31 sequence (O94804 whole entry): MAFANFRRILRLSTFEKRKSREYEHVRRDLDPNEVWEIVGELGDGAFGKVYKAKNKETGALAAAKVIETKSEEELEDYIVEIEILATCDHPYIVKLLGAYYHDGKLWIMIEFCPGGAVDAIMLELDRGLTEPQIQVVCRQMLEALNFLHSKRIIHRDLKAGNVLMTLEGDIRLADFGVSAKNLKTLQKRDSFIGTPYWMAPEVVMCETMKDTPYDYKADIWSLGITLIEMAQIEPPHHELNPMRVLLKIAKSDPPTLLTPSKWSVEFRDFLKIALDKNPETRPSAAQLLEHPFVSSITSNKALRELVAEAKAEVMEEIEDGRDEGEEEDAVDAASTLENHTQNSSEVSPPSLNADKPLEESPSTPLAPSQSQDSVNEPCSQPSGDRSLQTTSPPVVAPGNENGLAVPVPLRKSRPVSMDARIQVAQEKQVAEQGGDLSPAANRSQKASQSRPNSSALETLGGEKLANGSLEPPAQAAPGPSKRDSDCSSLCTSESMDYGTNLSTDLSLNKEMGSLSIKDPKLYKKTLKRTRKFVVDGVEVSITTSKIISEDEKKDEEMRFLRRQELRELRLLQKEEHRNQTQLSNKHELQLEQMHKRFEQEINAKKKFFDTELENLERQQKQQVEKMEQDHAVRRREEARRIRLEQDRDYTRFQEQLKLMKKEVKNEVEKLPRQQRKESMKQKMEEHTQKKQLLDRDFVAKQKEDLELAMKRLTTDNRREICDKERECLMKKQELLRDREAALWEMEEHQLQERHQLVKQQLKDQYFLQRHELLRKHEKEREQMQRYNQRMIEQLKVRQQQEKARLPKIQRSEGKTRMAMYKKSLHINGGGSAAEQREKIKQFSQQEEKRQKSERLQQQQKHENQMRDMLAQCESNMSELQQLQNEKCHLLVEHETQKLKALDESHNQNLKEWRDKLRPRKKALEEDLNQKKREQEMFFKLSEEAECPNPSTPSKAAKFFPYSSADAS
T15 sequence (Q8NI60 163-647): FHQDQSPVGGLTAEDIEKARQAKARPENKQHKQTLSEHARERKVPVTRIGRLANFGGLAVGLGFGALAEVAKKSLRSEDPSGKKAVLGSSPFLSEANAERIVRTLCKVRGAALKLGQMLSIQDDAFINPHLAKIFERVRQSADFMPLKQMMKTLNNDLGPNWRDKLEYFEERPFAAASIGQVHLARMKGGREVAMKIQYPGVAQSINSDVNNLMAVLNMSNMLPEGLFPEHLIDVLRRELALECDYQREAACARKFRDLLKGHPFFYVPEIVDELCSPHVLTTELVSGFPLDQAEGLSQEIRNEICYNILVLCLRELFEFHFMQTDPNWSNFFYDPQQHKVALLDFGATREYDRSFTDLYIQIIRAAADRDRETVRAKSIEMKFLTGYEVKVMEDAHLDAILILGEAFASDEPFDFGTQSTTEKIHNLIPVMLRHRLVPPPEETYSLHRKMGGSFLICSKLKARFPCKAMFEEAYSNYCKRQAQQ
T9 sequence (Q99759 whole entry): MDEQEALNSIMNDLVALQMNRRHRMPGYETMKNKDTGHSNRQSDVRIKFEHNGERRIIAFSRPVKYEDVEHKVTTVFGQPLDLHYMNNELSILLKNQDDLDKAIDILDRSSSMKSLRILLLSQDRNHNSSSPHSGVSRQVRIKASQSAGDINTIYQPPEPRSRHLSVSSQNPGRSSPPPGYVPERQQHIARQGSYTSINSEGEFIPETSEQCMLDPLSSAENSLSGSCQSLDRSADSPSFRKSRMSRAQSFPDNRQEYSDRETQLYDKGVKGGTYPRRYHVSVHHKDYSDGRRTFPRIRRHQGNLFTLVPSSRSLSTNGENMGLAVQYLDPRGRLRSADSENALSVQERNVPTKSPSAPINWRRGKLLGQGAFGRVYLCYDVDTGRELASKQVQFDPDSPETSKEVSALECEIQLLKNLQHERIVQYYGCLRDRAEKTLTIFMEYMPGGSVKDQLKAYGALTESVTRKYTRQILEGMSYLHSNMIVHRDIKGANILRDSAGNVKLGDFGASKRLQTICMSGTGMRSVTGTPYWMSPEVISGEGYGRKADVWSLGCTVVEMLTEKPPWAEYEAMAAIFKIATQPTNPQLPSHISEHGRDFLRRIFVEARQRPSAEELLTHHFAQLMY
T14 sequence (Q16832 22-855): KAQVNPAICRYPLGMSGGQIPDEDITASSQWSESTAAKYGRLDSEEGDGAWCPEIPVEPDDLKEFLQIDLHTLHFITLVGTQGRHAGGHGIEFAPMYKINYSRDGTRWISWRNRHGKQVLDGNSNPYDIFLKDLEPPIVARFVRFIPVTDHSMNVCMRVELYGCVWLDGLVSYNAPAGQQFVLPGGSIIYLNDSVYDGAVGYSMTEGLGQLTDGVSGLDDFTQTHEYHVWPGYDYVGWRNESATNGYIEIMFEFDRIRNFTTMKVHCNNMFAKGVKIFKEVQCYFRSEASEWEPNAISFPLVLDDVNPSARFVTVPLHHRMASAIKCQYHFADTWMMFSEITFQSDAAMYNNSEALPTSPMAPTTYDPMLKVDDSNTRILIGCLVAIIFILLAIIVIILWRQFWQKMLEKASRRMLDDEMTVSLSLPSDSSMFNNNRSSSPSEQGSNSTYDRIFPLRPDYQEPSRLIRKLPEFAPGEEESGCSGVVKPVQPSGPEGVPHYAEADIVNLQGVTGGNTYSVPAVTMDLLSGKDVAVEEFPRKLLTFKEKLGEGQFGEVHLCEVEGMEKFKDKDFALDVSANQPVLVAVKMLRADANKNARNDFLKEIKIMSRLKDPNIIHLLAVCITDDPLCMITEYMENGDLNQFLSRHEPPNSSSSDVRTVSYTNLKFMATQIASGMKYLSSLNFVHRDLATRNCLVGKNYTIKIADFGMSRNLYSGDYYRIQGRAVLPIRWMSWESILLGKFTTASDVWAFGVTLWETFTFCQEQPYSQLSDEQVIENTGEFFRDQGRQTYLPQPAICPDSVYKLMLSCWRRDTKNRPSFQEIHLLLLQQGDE
T17 sequence (P41240 whole entry): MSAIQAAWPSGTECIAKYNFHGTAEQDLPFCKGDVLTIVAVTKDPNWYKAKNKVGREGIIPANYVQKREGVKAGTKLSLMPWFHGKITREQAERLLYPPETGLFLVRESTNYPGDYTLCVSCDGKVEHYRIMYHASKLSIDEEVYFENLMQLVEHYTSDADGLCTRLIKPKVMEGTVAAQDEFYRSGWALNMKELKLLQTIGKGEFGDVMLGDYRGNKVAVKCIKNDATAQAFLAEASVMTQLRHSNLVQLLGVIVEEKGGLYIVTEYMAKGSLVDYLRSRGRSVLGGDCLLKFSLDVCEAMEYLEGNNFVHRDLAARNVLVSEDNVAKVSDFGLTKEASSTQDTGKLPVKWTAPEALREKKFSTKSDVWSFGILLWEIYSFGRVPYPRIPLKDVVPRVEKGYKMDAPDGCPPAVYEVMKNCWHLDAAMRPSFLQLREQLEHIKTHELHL

Take `Cc1cccc(-c2cnc3occ(-c4ccc(C(=O)O)c(C5CCCC5)c4)c3c2)c1` [SGC-CAMKK2-1 (YL-36)]: the remaining binding at 1 µM is 78% in assay [1]; 80% in assay [2]; 100% in assay [3]; 100% in assay [4]; 100% in assay [5]; 97% in [6]. For the same compound, the remaining binding at 1 µM in assay [7] came out at 100%; in assay [8], 100%; in assay [9] it was 88%; in assay [10], 98%; in assay [11] it was 100%; in [12] it was 100%. Moreover, the remaining binding at 1 µM in [13], in assay [14], in assay [15] and in assay [16] was 100% each time.

Turning to `O=C(O)c1ccc(-c2coc3ncc(-c4ccccc4)cc23)cc1Cl` [SGC-CAMKK2-1N (UNC-YL-83)], the remaining binding at 1 µM was found to be 60% in [17]; 100% in [18]; 92% in assay [19]; 100% in assay [20]; 97% in assay [21]; 83% in assay [22]. Also, the remaining binding at 1 µM in [23] came to 64%; in [24], 40%; in assay [25], 100%; in [26], 84%; in assay [27], 100%; in assay [28], 62%. Also, the remaining binding at 1 µM in assay [29] turned out to be 46%; in assay [30] it was 74%; in assay [31], 80%; in assay [32] it was 100%; in assay [33] it was 66%.
